Where no end group is shown, it is not given here.
Key:
[1] = tested on: Pseudomonas aeruginosa strain 1034; assay: In vivo antimicrobial activity, infected skin wound; parameters: species or system BALB/c mouse
Protocol: By using Hp1404-T1e found to have the most excellent antimicrobial activity among the peptides that are prepared by the method of Example 1, in vivo antimicrobial activity was measured. Specifically, among the Pseudomonas aeruginosa strains, strain 1034 was selected and tested. The strain was prepared by washing 3 times with PBS buffer. Ciprofloxacin antibiotic was used as a control group. A BALB/c mouse (6 week old) was shaved clean and a wound with pre-determined size was created thereon. Then, the wound site was injected intracutaneously with Pseudomonas aeruginosa strain 1034 ([…], 2×10^5 CFU/ml). After the bacterial infection, the peptide and antibiotic, each prepared at a concentration of 0.1 mg/ml and 0.2 mg/ml, respectively, were intracutaneously injected, and the observation was made everyday. On each day, the skin tissues were sampled and smeared on an NB solid medium. The smeared medium was incubated in an incubator for 18 hours, and the number of grown colonies was counted and expressed in %.

[2] = tested on: erythrocytes of a mouse (Balb/c); assay: Hemolytic activity; type: cell-based
Protocol: To compare the cytotoxicity among the peptides that are produced by the method of Example 1, erythrocyte hemolytic activity of the synthesized peptide was measured.
Specifically, erythrocytes of a mouse (Balb/c, 6 week old, female) were diluted in physiological saline (PBS, pH 7.0) to have concentration of 8%, and then subjected to a treatment with Hp1404, Hp1404-T1, Hp1404-T1a, Hp1404-T1b, Hp1404-T1c, Hp1404-T1d or Hp1404-T1e, each at concentration of 6.25, 12.5, 25.0, 50.0, 100.0 and 200.0 μM/well, respectively, followed by a reaction for 1 hour at 37° C. After that, the amount of hemoglobin contained in a supernatant collected by centrifuge at 1,000×g was determined by measuring the absorbance at a wavelength of 414 nm. As a control group to be used as a reference for cell disruption level, the supernatant collected by a treatment with 1% Triton X-100 (Sigma, USA) and a reaction for 1 hour at 37° C. was used to measure the absorbance. By setting the resulting absorbance value at 100%, the hemolytic activity of each peptide was calculated using the following mathematical formula 1. Erythrocyte disrupting ability (hemolysis) (%)=(Absorbance A−Absorbance B)/(Absorbance C−Absorbance B)×100 [Mathematical formula 1] (in the above formula, Absorbance A indicates the absorbance of a reaction solution treated with each peptide, in which the absorbance is measured at a wavelength of 414 nm; Absorbance B indicates the absorbance of a reaction solution treated with PBS, in which the absorbance is measured at a wavelength of 414 nm; and Absorbance C indicates the absorbance of a reaction solution treated with 1% Triton X-100, in which the absorbance is measured at a wavelength of 414 nm).

[3] = tested on: S. aureus; assay: MIC, S. aureus; type: cell-based, Staphylococcus aureus; settings: S. aureus (ATCC 25923), 18 hours at 37° C.
Description: (§1) To compare the antimicrobial activity among the peptides produced by the method of Example 1, the inventors of the present invention measured the minimal growth inhibitory concentration (MIC), which is minimum concentration of the peptide showing no dissociation of bacterial cells.
(§2) Specifically, the bacterial strain described in the following Table 2 was purchased and cultured to a mid-log phase in each medium with a composition suitable for each strain. Then, after dilution to bacterial cell concentration of 2×10^4 cells/100 μl, the cells were inoculated to a microtiter plate (NUNC, USA). Thereafter, Hp1404-T1, Hp1404-T1a, Hp1404-T1b, Hp1404-T1c, Hp1404-T1d or Hp1404-T1e peptide which has been synthesized in Example 1 above was subjected to serial dilution, ½ times for each, with BSA (bovine serum albumin) solution in a 96-well plate. After adding the cells to a plate, the cells were cultured for 18 hours at 37° C. By using a microtiter plate reader (Merck Elisa reader, Germany), the absorbance was measured at a wavelength of 600 nm to determine the MIC value of each bacterial strain. As a control group, Hp1404 as a mother peptide was used.

[4] = Cytotoxicity in normal cell line (MTT); type: cell-based; settings: human, HaCaT keratinocytes, read-out: Cell survival ability; for viability at 24 h, 6.25 µM: peptide concentration 6.25 μM; for viability at 24 h, 12.5 µM: peptide concentration 12.5 μM; for viability at 24 h, 25 µM: peptide concentration 25 μM; for viability at 24 h, 50 µM: peptide concentration 50 μM; for viability at 24 h, 100 µM: peptide concentration 100 μM; for viability at 24 h, 200 µM: peptide concentration 200 μM, HaCaT
Protocol: To determine the cytotoxicity of the peptide produced by the method of Example 1 in normal cell line, toxicity was measured by using human keratinocytes (HaCaT cell line, Dr. N E. Fusenig, Heidelberg, Germany).
Specifically, HaCaT cells which have been cultured in DMEM medium containing 10% FBS (Fetal Bovine Serum) were aliquoted in a 96-well plate to have 2×10^5 cells per well. After culturing them for 24 hours, the cells were subjected to a treatment with Hp1404, Hp1404-T1, Hp1404-T1a, Hp1404-T1b, Hp1404-T1c, Hp1404-T1d, or Hp1404-T1e, each at concentration of 6.25, 12.5, 25.0, 50.0, 100.0 or 200.0 μM/well, followed by reaction for 24 hours in a 5% CO2 incubator. After 24 hours, a reaction solution containing 0.5 mg/ml MTT (Thiazolyl Blue Tetrazolium Bromide) dissolved in physiological saline (PBS) was added in an amount of 100 μl to each well and the reaction was allowed to occur for 4 hours. After that, the supernatant was removed, and, by dissolving MTT crystals that are formed by adding 200 μl of DMSO (dimethyl sulfoxide), the absorbance at 560 nm was measured to determine the cell survival ability.

[5] = tested on: E. coli; assay: MIC, E. coli; type: cell-based, Escherichia coli; settings: E. coli (ATCC 25922), 18 hours at 37° C.
Description: as §1, §2

[6] = tested on: L. monocytogenes; assay: MIC, L. monocytogenes; type: cell-based, Listeria monocytogenes; settings: L. monocytogenes (KCTC 3710), 18 hours at 37° C.
Description: as §1, §2

[7] = tested on: plasmid DNA (pRSETB); assay: Binding between antimicrobial peptide and DNA (gel electrophoresis); settings: peptide/DNA ratio 0.25:1 to 4:1, 10 minutes at 37° C.
Protocol: To figure out the working mechanism of the synthetic peptides of the present invention for showing the antimicrobial activity, electrophoresis was carried out to examine the possible binding of synthetic peptides, i.e., Hp1404, […], Hp1404-T1d and Hp1404-T1e, to DNA as an internal material of bacteria.
Specifically, after reacting the plasmid DNA (pRSETB, 260 ng) with the peptide at different ratio (i.e., peptide/DNA ratio is as follows for lane number 1 to lane number 8: DNA only, 0.25:1, 0.5:1, 1:1, 1.5:1, 2:1, 3:1, and 4:1. respectively) for 10 minutes at 37° C., they were subjected to electrophoresis using 1% agarose gel followed by ethidium bromide (EtBr) staining and UV visualization.

[8] = tested on: S. aureus or P. aeruginosa membrane; assay: Flow cytometry with propidium iodide; type: cell-based; settings: 2×MIC, 1 hour at 37° C.
Protocol: Specifically, S. aureus or P. aeruginosa was treated for 1 hour at 37° C. with the mother peptide Hp1404, or Hp1404-T1c, Hp1404-T1d or Hp1404-T1e peptide (at concentration of 2×MIC). After that, the supernatant was removed by centrifuge (10,000 rpm) and stained with propidium iodide (PI, concentration of 10 μg/ml) for 30 minutes at 4° C. Thereafter, unbound propidium iodide was removed by centrifuge, and the problem of cell aggregation phenomenon was solved by adding physiological saline (PBS) in an amount of 1 ml.

[9] = tested on: lipopolysaccharide (LPS) isolated from P. aeruginosa; assay: Binding ability between lipopolysaccharide (LPS) and peptide; settings: peptide at 1×MIC
Protocol: By using the peptides prepared by the method of Example 1, binding to lipopolysaccharide (LPS), which is a constitutional component of a cell wall of Gram-negative bacteria, was examined. LPS used in the present invention was isolated from P. aeruginosa. Lipopolysacchride (0 to 100 μg/ml) was diluted with 10 mM sodium phosphate buffer (pH 7.2), reacted with each peptide at a concentration of 1× or 2×MIC, and then cultured with the bacteria at 2×10^5 CFU/ml. By measuring the absorbance at 600 nm, the binding ability to the peptide was determined. Additionally, after reacting 0.1% […] with the peptide (40 μM) in an incubator, the secondary structure was examined by circular dichroism (CD) spectroscopy.

[10] = Stability against trypsin enzyme (RP-HPLC); type: in vitro ADME; settings: 20 nM trypsin, 37° C., read-out: amount of remaining peptide
Protocol: To determine whether or not the peptides prepared by the method of Example 1 have stability against an enzyme, RP-HPLC (reverse-phase HPLC) was carried out. Specifically, 20 μg of the peptide was reacted with 100 μl of trypsin at concentration of 20 nM for 1 to 2 hours at 37° C. After the reaction, 20 μl of the reaction product was applied to RP-HPLC, and the amount of remaining peptide was examined.

Compound	Erythrocyte disrupting ability ([2]; peptide concentration 6.25 μM) [%]	Erythrocyte disrupting ability ([2]; peptide concentration 12.5 μM) [%]	Erythrocyte disrupting ability ([2]; peptide concentration 25 μM) [%]	Erythrocyte disrupting ability ([2]; peptide concentration 50 μM) [%]	Erythrocyte disrupting ability ([2]; peptide concentration 100 μM) [%]	Minimal inhibitory concentration [3] [µM]	viability at 24 h, 6.25 µM [4] [%]	viability at 24 h, 12.5 µM [4] [%]	viability at 24 h, 25 µM [4] [%]	viability at 24 h, 50 µM [4] [%]	viability at 24 h, 100 µM [4] [%]	viability at 24 h, 200 µM [4] [%]	Minimal inhibitory concentration [5] [µM]	Minimal inhibitory concentration [6] [µM]	also measured
O=C(O)c1cn(C2CC2)c2cc(N3CCNCC3)c(F)cc2c1=O [ciprofloxacin, reference compound]															wound healing ([1]; 0.1 mg/ml and 0.2 mg/ml, intracutaneous, observed everyday): no wound healing at all; number of colonies, compared with peptide treatment ([1]; treated after the bacterial infection): higher than that obtained from the peptide treatment condition
ILGKLWEGVKSI-NH2 [Hp1404-T1]	0	0	0	0	0	>25	100	100	100	100	100	100	>25	>25	
ILKKLLEGVKSI-NH2 [Hp1404-T1b]	0.07	0.19	0	0	0	>25	100	100	100	100	80.9	31.9	>25	>25	
ILKKLLKGVKSI-NH2 [Hp1404-T1c]	0	0	0	0	0		100	100	100	51.3	48.6				binding to DNA [7]: did not bind to any DNA; propidium iodide fluorescence signal shift (membrane damage) [8]: no such shift of fluorescence signal; binding to LPS, rank order [9]: binding to LPS increases in order of Hp1404-T1e, Hp1404-T1d, Hp1404-T1c, and Hp1404; remaining at 1 h, 200 μg/mL ([10]; reaction for 1 hour): ≥ 80%; remaining at 2 h, 200 μg/mL ([10]; reaction for 2 hours): 80%
ILKKLWEGVKSI-NH2 [Hp1404-T1a]	0	0	0	0	0		100	100	100	100	100	30.7			

Source: patent US11117931B2, “Antimicrobial peptide derived from Hp1404 peptide and uses thereof” (priority 2017, dated 2021)
